Measurements: ChEMBL document CHEMBL1201862, “PubChem BioAssay data set” (2004)
Blank lines part the entries; values can stand above or below the compound they belong to. The source made the active and inactive calls.

Experiments:
[1] = target: T1, Carboxy-terminal domain RNA polymerase II polypeptide A small phosphatase 1 (Homo sapiens, UniProt Q9GZU7); assay: inhibitors of CTDSP1, concentration-response testing, biochemical assay, absorbance-based, actives from ultra-high-throughput screening (AID 540297); assay type: functional
T1 sequence (Q9GZU7 whole entry): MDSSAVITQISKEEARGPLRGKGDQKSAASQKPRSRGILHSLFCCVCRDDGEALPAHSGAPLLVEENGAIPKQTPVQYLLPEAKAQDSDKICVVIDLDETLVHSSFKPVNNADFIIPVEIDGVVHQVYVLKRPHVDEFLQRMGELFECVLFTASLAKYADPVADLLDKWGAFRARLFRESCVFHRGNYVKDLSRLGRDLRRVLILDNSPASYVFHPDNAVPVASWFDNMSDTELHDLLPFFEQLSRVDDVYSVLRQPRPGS

[2] = target: Prothrombin (Bos taurus, UniProt P00735); assay: thrombin inhibition, dose response, biochemical, fluorescence polarization, uHTS hits (AID 602369); assay type: functional
[3] = target: 26S proteasome non-ATPase regulatory subunit 14 (Homo sapiens, UniProt O00487); assay: inhibition of proteasome subunit RPN11 – biochemical, fluorescence polarization, uHTS hits, confirmation (AID 602368); assay type: functional
Chain of 26S proteasome non-ATPase regulatory subunit 14 (O00487 whole entry): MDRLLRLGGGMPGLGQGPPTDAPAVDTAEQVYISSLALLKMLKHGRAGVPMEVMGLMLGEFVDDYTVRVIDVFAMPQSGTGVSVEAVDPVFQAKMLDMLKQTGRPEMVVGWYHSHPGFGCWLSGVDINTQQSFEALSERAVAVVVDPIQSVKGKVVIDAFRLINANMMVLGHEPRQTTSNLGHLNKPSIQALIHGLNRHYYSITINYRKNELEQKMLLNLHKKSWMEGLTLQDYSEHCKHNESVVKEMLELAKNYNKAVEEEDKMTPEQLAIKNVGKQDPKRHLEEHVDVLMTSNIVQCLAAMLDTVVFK

[4] = target: 72 kDa type IV collagenase (Homo sapiens, UniProt P08253); assay: Dose Response validation of uHTS RPN11 inhibitor hits using a MMP-2 Fluorescence assay.; assay type: functional
Chain of 72 kDa type IV collagenase (P08253 whole entry): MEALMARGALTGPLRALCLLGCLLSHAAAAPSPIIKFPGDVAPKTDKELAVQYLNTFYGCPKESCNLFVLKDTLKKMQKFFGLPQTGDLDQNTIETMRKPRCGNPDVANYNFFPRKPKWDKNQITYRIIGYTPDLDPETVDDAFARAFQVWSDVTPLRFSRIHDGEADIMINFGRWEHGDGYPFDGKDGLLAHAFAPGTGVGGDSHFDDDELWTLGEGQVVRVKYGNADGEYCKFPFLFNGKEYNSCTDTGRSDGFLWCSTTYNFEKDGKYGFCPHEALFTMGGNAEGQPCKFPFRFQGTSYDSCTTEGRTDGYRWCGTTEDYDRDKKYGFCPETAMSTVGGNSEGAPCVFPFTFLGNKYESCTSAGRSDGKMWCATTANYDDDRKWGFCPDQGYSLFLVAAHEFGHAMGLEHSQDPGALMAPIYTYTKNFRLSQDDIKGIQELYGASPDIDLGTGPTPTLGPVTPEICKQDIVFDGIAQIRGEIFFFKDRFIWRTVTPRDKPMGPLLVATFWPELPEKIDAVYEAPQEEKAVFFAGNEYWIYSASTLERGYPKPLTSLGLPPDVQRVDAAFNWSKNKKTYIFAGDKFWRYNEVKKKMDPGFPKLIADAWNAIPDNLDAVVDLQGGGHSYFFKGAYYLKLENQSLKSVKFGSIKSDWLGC

[5] = tested on: Streptococcus; assay: Group A Streptococcus viability loss, dose response, counter-screen for streptokinase expression inhibitor project, luminescence, BacTiterGlo (AID 1915); assay type: functional, organism-based;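 further: potency for reduction of bacterial viability or growth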
[6] = tested on: Streptococcus sp. 'group A'; assay: growth inhibition of control SK(-) GAS strain, dose response, counter-screen for streptokinase expression inhibitor project, luminescence, kanamycin, BacTiterGlo, confirmation (AID 1900); assay type: functional, organism-based
[7] = target: T2, High affinity choline transporter 1 (Homo sapiens, UniProt Q9GZV3); assay: CHT inhibitors, dose response, cell-based, 5-point CRC, membrane potential dye (AID 504840); assay type: functional
T2 sequence (Q9GZV3 whole entry): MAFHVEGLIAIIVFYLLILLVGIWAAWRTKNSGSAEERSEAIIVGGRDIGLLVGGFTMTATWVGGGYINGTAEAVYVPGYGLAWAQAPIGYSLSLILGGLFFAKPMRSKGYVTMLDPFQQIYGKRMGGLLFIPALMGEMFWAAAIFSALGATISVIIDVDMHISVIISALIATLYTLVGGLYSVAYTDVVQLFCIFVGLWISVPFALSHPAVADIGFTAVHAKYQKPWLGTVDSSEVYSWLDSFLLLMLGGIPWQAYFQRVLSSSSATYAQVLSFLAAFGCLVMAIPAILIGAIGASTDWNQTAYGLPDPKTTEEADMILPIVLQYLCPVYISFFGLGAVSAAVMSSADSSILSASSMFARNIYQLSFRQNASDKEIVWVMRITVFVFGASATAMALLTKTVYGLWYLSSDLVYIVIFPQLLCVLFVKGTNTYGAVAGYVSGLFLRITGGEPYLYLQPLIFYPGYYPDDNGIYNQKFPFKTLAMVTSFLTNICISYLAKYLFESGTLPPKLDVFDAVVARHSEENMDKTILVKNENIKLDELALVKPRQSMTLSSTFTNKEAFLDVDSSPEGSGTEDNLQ

[8] = tested on: A-375; assay: MITF: Counter assay: A375 proliferation Measured in Cell-Based System Using Plate Reader - 2084-03_Inhibitor_Dose_DryPowder_Activity. [Related pubchem assays (depositor defined):AID488944]; assay type: functional; conditions: Homo sapiens
[9] = cytotoxicity in HEK-293T cells, dose response, cytotoxicity control for TCR NF-kB inhibitor project, luminescence, T-cell screen hits (AID 489026); assay type: functional, cell-based;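 further: cells exposed to compound about 14 hours before the viability readout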
[10] = tested on: INS1; assay: beta cell apoptosis inhibitors, cytokine rescue, dose response, luminescence, retest (AID 449756); assay type: functional, cell-based; conditions: Rattus norvegicus;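 further: cell death triggered by IL-1 beta plus TNF-alpha plus IFN-gamma mixture; protective hits raise ATP signal compared with cytokine alone wells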
[11] = target: T3, Microphthalmia-associated transcription factor (Homo sapiens, UniProt O75030); assay: TRPM1 promoter luciferase signal decrease, dose response, MITF inhibitor project, cell-based, SK-MEL-5, cherry-picked, set 3 (AID 493073); assay type: functional
T3 sequence (O75030 whole entry): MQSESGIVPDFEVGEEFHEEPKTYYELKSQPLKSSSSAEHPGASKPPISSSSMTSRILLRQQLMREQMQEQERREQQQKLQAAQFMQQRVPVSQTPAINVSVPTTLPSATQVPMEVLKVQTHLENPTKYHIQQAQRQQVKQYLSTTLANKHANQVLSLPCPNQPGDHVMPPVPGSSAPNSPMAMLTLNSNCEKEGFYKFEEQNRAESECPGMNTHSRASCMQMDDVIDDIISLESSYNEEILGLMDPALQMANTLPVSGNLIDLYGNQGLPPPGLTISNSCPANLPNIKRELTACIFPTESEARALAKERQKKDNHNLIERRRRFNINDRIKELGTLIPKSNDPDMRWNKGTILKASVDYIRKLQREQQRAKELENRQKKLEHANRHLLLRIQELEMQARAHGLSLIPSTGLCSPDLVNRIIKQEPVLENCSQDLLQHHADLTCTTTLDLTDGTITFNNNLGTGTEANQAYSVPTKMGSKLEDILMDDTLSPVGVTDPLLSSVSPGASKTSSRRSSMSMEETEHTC

- IC50 [1]: 14.3 µM (active)
Compound: COc1cc(OC)c2ccc(=O)oc2c1C(CC(=O)N1CCCC(C)C1)c1ccc2c(c1)OCO2 (centres undefined)

- IC50 [1]: 8.39 µM (active)
Compound: O=C(CSc1nc2c(sc3ccccc32)c(=O)n1CCO)NCc1ccco1

- IC50 [2]: 77.5 µM (active)
- IC50 [3]: 18.2 µM (active)
- IC50 [4]: > 100 µM (inactive)
- IC50 [1]: 4.45 µM (active)
Compound: O=C(N/N=C/c1ccccc1F)c1cc2c(ccc3ccccc32)o1

Compound: Oc1c(Br)cc(Br)cc1/C=N/c1nc2c(s1)CCCC2
- EC50 [5]: 7.68 µM (active)
- EC50 [6]: 7.39 µM (active)
- IC50 [7]: 13.2 µM (active)

- IC50 [7]: 13.2 µM (active)
Compound: O=C(O/N=C(/c1ccccc1)c1ccncc1)c1ccccc1[N+](=O)[O-]

Compound: COc1ccc(C(=O)/C(C#N)=N/Nc2ccc([N+](=O)[O-])cc2)cc1
- AC50 [8]: 28.8 µM (active)
- IC50 [9]: > 80 µM (inactive)
- AC50 [10]: 1.9 µM (active)
- AC50 [11]: 8.26 µM (active)
